Patent publication US12215106B2, “Pharmaceutical compounds and therapeutic methods” (RUTGERS, THE STATE UNIVERSITY OF NEW JERSEY, priority 2018, dated 2025)
Structures can show the parent of a compound that is named as a salt. Where two headings read alike, the source gives them in different places.

Assay: Plasma pharmacokinetics and brain distribution after single IV, IP and oral administration
Assay type: in vivo
Details: for Kp at 0.08 h / Kp at 0.35 h / Kp at 1 h / Kp at 3 h / Kp at 6 h: read-out: Brain-to-plasma ratio
Description: (§1) The objective of this study was to investigate the plasma pharmacokinetics and brain distribution of Compound (14 in male C57BL/6 mice following a single intravenous, intraperitoneal and oral administration. A group of sixty-three male mice were divided into three groups (Group 1: 2 mg/kg/IV; Group 2: 10 mg/kg/IP and Group 3: 10 mg/kg/PO) with each group comprising of twenty-one mice.
Animals in Group 1 were administered intravenously with Compound 15 solution formulation in 5% NMP, 5% Solutol HS-15, 30% PEG-400 and 60% Captisol (20% w/v) at 2 mg/kg dose. […] Considering mortality intravenous dose was reduced to 2 mg/kg.
Animals in Group 2 and 3 were administered with Compound 15 solution formulation in 5% NMP, 5% Solutol HS-15, 30% PEG-400 and 60% Captisol (20% w/v) at a dose of 10 mg/kg by intraperitoneal and oral route respectively.
(§2) Blood samples (approximately 60 μL) were collected under light isoflurane anesthesia from retro orbital plexus from a set of three mice at 0.08, 0.35, 1, 3, 6, 12 and 24 hr. Plasma samples were separated by centrifugation of whole blood and stored below −70±10° C. until bioanalysis. Immediately after collection of blood, brain samples were collected from set of three mice at each time point. Brain samples were homogenized using ice-cold phosphate buffer saline (pH-7.4) in a ratio of 2 (buffer):1(brain); and homogenates were stored below −70±10° C. until analysis. Total homogenate volume was three times the brain weight. All samples were processed for analysis by protein precipitation using acetonitrile and analyzed with fit-for-purpose LC/MS/MS method (LLOQ2.00 ng/mL for plasma and 3.00 ng/g for brain). Pharmacokinetic parameters were calculated using the non-compartmental analysis tool of Phoenix WinNonlin® (Version 7.0). Pharmacokinetic parameters of Compound 15 are summarized below.
as §1, with “Compound 16” for “Compound (14”, “1: 10” for “1: 2”
Animals in Group 1 were administered intravenously with Compound 16 solution formulation in 5% NMP, 5% Solutol HS-15 and 90% normal saline at 10 mg/kg dose.
Animals in Group 2 and 3 were administered with Compound 16 solution formulation in 5% NMP, 5% Solutol HS-15 and 90% normal saline at a dose of 10 mg/kg by intraperitoneal and oral route respectively.
as §2, with “(LLOQ—1.00” for “(LLOQ2.00”, “16” for “15”
as §1, with “17” for “(14”, “mice. […]” for “mice.”

[1] = male, C57BL/6, mouse, brain, ip, 10 mg/kg, IP 10 mg/kg
[2] = male, C57BL/6, mouse, brain, po, 10 mg/kg, PO 10 mg/kg
[3] = male, C57BL/6, mouse, in vivo, ip, 10 mg/kg
[4] = male, C57BL/6, mouse, in vivo, ip, 10 mg/kg, 12 h
[5] = male, C57BL/6, mouse, in vivo, ip, 10 mg/kg, 24 h
[6] = male, C57BL/6, mouse, in vivo, ip, 10 mg/kg, Brain concentration, individual animal
[7] = male, C57BL/6, mouse, in vivo, ip, 10 mg/kg, Mean brain conc.
[8] = male, C57BL/6, mouse, in vivo, ip, 10 mg/kg, Mean plasma conc.
[9] = male, C57BL/6, mouse, in vivo, ip, 10 mg/kg, Plasma concentration, individual animal
[10] = male, C57BL/6, mouse, in vivo, iv, 2 mg/kg
[11] = male, C57BL/6, mouse, in vivo, iv, 2 mg/kg, 3 h
[12] = male, C57BL/6, mouse, in vivo, iv, 2 mg/kg, 6 h
[13] = male, C57BL/6, mouse, in vivo, iv, 2 mg/kg, 12 h
[14] = male, C57BL/6, mouse, in vivo, iv, 2 mg/kg, 24 h
[15] = male, C57BL/6, mouse, in vivo, iv, 2 mg/kg, Brain concentration, individual animal
[16] = male, C57BL/6, mouse, in vivo, iv, 2 mg/kg, Mean brain conc.
[17] = male, C57BL/6, mouse, in vivo, iv, 2 mg/kg, Mean plasma conc.
[18] = male, C57BL/6, mouse, in vivo, iv, 2 mg/kg, Plasma concentration, individual animal
[19] = male, C57BL/6, mouse, in vivo, po, 10 mg/kg
[20] = male, C57BL/6, mouse, in vivo, po, 10 mg/kg, 12 h
[21] = male, C57BL/6, mouse, in vivo, po, 10 mg/kg, 24 h
[22] = male, C57BL/6, mouse, in vivo, po, 10 mg/kg, Brain concentration, individual animal
[23] = male, C57BL/6, mouse, in vivo, po, 10 mg/kg, Mean brain conc.
[24] = male, C57BL/6, mouse, in vivo, po, 10 mg/kg, Mean plasma conc.
[25] = male, C57BL/6, mouse, in vivo, po, 10 mg/kg, Plasma concentration, individual animal
[26] = male, C57BL/6, mouse, in vivo, IV 2 mg/kg
[27] = male, C57BL/6, mouse, plasma, IP 10 mg/kg
[28] = male, C57BL/6, mouse, plasma, IV 2 mg/kg
[29] = male, C57BL/6, mouse, plasma, PO 10 mg/kg

## [2H]C1([2H])Oc2ccc(Nc3nc(-c4c(C)nc5ccccn45)cs3)cc2O1 [Compound 17, N-(benzo[d][1,3]dioxol-5-yl-2,2-d2)-4-(2-methylimidazo[1,2-c]pyridin-3-yl)thiazol-2-amine hydrochloride]
PO 10 mg/kg, AUClast considered, hydrochloride, 10 mg/kg
  Oral bioavailability, % F: ~100%
brain, IP 10 mg/kg
  AUClast: 360.87 ng·h/g
brain, IV 2 mg/kg
  AUClast: 97.08 ng·h/g
brain, PO 10 mg/kg
  AUCinf: 204.06 ng·h/g
  AUClast: 171.84 ng·h/g
male, C57BL/6, mouse, brain, ip, 10 mg/kg, IP 10 mg/kg, 0.08 hr
  Kp at 0.08 h: 0.61
[1]
  Kp at 0.35 h: 0.52
  Kp at 1 h: 0.39
  Kp at 3 h: 1.1
  Kp at 6 h: 0.59
male, C57BL/6, mouse, brain, ip, 10 mg/kg, IP 10 mg/kg, read-out: brain-to-plasma ratio, range over time
  Kp: 0.39 to 1.1
male, C57BL/6, mouse, brain, iv, 2 mg/kg, IV 2 mg/kg, read-out: brain-to-plasma ratio, range over time
  Kp: 0.18 to 4.03
male, C57BL/6, mouse, brain, po, 10 mg/kg, PO 10 mg/kg, 0.08 hr
  Kp at 0.08 h: 0.33
[2]
  Kp at 0.35 h: 0.32
  Kp at 1 h: 0.48
  Kp at 3 h: 0.32
  Kp at 6 h: 0.23
male, C57BL/6, mouse, brain, po, 10 mg/kg, PO 10 mg/kg, read-out: brain-to-plasma ratio, range over time
  Kp: 0.23 to 0.48
male, C57BL/6, mouse, brain, po, 10 mg/kg, summary data, read-out: Brain to plasma ratio following a single oral dose
  Kp: 0.48
[3]
  Brain concentrations quantifiable up to: up to 6 hr
  Plasma concentrations quantifiable up to: up to 6 hr
[4]
  Brain concentration, individual animal: 0.00 ng/g
  Plasma concentration, individual animal: 0.00 ng/mL
[5]
  Brain concentration, individual animal: 0.00 ng/g
  Plasma concentration, individual animal: 0.00 ng/mL
[6]
  concentration at 0.08 h: 285 ng/g
  concentration at 0.35 h: 291 ng/g
  concentration at 1 h: 65.9 ng/g
  concentration at 12 h: 0 ng/g
  concentration at 24 h: 0 ng/g
[7]
  concentration at 0.35 h: 236 ng/g
  concentration at 1 h: 90.3 ng/g
  concentration at 3 h: 82 ng/g
  concentration at 6 h: 26 ng/g
  concentration at 12 h: 0 ng/g
  concentration at 24 h: 0 ng/g
[8]
  concentration at 0.35 h: 458 ng/mL
  concentration at 1 h: 232 ng/mL
  concentration at 3 h: 74.9 ng/mL
  concentration at 6 h: 43.7 ng/mL
  concentration at 12 h: 0 ng/mL
  concentration at 24 h: 0 ng/mL
[9]
  concentration at 0.08 h: 530 ng/mL
  concentration at 0.35 h: 478 ng/mL
  concentration at 1 h: 223 ng/mL
  concentration at 12 h: 0 ng/mL
  concentration at 24 h: 0 ng/mL
[10]
  Brain concentrations quantifiable up to: up to 1 hr
  Vss, fold more than normal volume of total body water (0.7 L/kg): 6.3 fold
[11]
  Brain concentration, individual animal: 0.00 ng/g
  Plasma concentration, individual animal: 0.00 ng/mL
[12]
  Brain concentration, individual animal: 0.00 ng/g
  Plasma concentration, individual animal: 0.00 ng/mL
[13]
  Brain concentration, individual animal: 0.00 ng/g
  Plasma concentration, individual animal: 0.00 ng/mL
[14]
  Brain concentration, individual animal: 0.00 ng/g
  Plasma concentration, individual animal: 0.00 ng/mL
[15]
  concentration at 0.08 h: 44.7 ng/g
  concentration at 1 h: 17.1 ng/g
  concentration at 3 h: 0 ng/g
  concentration at 6 h: 0 ng/g
  concentration at 12 h: 0 ng/g
  concentration at 24 h: 0 ng/g
[16]
  concentration at 0.08 h: 44.9 ng/g
  concentration at 0.35 h: 180 ng/g
  concentration at 1 h: 13.8 ng/g
  concentration at 3 h: 0 ng/g
  concentration at 6 h: 0 ng/g
  concentration at 12 h: 0 ng/g
  concentration at 24 h: 0 ng/g
[17]
  concentration at 0.08 h: 256 ng/mL
  concentration at 0.35 h: 44.8 ng/mL
  concentration at 1 h: 9.57 ng/mL
  concentration at 3 h: 0 ng/mL
  concentration at 6 h: 0 ng/mL
  concentration at 12 h: 0 ng/mL
  concentration at 24 h: 0 ng/mL
[18]
  concentration at 0.08 h: 260 ng/mL
  concentration at 0.35 h: 41.5 ng/mL
  concentration at 3 h: 0 ng/mL
  concentration at 6 h: 0 ng/mL
  concentration at 12 h: 0 ng/mL
  concentration at 24 h: 0 ng/mL
[19]
  Brain concentrations quantifiable up to: up to 6 hr
  Plasma concentrations quantifiable up to: up to 6 hr
[20]
  Brain concentration, individual animal: 0.00 ng/g
  Plasma concentration, individual animal: 0.00 ng/mL
[21]
  Brain concentration, individual animal: 0.00 ng/g
  Plasma concentration, individual animal: 0.00 ng/mL
[22]
  concentration at 0.35 h: 43.6 ng/g
  concentration at 3 h: 28.1 ng/g
  concentration at 12 h: 0 ng/g
  concentration at 24 h: 0 ng/g
[23]
  concentration at 0.35 h: 53 ng/g
  concentration at 1 h: 51.9 ng/g
  concentration at 3 h: 20.5 ng/g
  concentration at 6 h: 10.5 ng/g
  concentration at 12 h: 0 ng/g
  concentration at 24 h: 0 ng/g
[24]
  concentration at 0.35 h: 163 ng/mL
  concentration at 1 h: 109 ng/mL
  concentration at 3 h: 63.5 ng/mL
  concentration at 6 h: 45.5 ng/mL
  concentration at 12 h: 0 ng/mL
  concentration at 24 h: 0 ng/mL
[25]
  concentration at 3 h: 62.6 ng/mL
  concentration at 12 h: 0 ng/mL
  concentration at 24 h: 0 ng/mL
male, C57BL/6, mouse, in vivo, IP 10 mg/kg, 0.08 hr, read-out: Mean brain conc.
  concentration at 0.08 h: 288 ng/g
male, C57BL/6, mouse, in vivo, IP 10 mg/kg, 0.08 hr, read-out: Mean plasma conc.
  concentration at 0.08 h: 469 ng/mL
male, C57BL/6, mouse, in vivo, IV 2 mg/kg, 0.08 hr
  Kp at 0.08 h: 0.18
[26]
  Kp at 0.35 h: 4.03
  Kp at 1 h: 1.45
male, C57BL/6, mouse, in vivo, PO 10 mg/kg, 0.08 hr, read-out: Mean brain conc.
  concentration at 0.08 h: 67.3 ng/g
male, C57BL/6, mouse, in vivo, PO 10 mg/kg, 0.08 hr, read-out: Mean plasma conc.
  concentration at 0.08 h: 207 ng/mL
male, C57BL/6, mouse, in vivo, brain, IP 10 mg/kg
  Cmax: 288 ng/g
male, C57BL/6, mouse, in vivo, brain, PO 10 mg/kg
  Cmax: 67.3 ng/g
male, C57BL/6, mouse, in vivo, plasma, IP 10 mg/kg
  Cmax: 469 ng/mL
male, C57BL/6, mouse, in vivo, plasma, PO 10 mg/kg
  Cmax: 207 ng/mL
male, C57BL/6, mouse, plasma, po, 10 mg/kg, PO 10 mg/kg, AUClast considered, read-out: Oral bioavailability, % F
  bioavailability: > 100%
male, C57BL/6, mouse, plasma, po, 10 mg/kg, summary data, read-out: Oral bioavailability
  bioavailability: > 100%
male, C57BL/6, mouse, brain, IP 10 mg/kg
  Tmax: 4.8 min
male, C57BL/6, mouse, brain, PO 10 mg/kg
  Tmax: 4.8 min
[27]
  AUC(0-inf): 786 ng·h/mL
  AUC(0-t): 675 ng·h/mL
  Tmax: 4.8 min
[28]
  AUC(0-inf): 88.2 ng·h/mL
  AUC(0-t): 85.7 ng·h/mL
male, C57BL/6, mouse, plasma, IV 2 mg/kg, read-out: CL, plasma clearance
  clearance: 378 mL/min/kg
male, C57BL/6, mouse, plasma, IV 2 mg/kg, read-out: T1/2, terminal elimination half-life (converted)
  half-life: 12.6 min
male, C57BL/6, mouse, plasma, IV 2 mg/kg, read-out: Vss
  Vd: 4.4 L/kg
[29]
  AUC(0-t): 482 ng·h/mL
  Tmax: 4.8 min
mouse, in vivo, iv, 10 mg/kg
  mortality immediately after dose administration: mortality was observed in six animals
Summary data, hydrochloride
  Oral bioavailability: 112%
